According to PMC6681824 (Biochemistry, 2019):
Several values for one entry are separate records, joined by “and”; a condition that tells them apart may be missing. Equal values may be shown once. Read-outs that look alike come from different tables or passages of the source.

Legend:
[1] = Potentiometric titration of leaving-group acids; assay type: physicochemical; details: 0.1 M KCl, 25 °C
pol η = molecular target: T1, pol η (Homo sapiens, UniProt Q9Y253); assay type: biochemical; details: for increase in G·T misincorporation rate constant (kpol), W versus B: G opposite T, W sequence compared to B sequence; for Kd: read-out: apparent Kd
T1 sequence (Q9Y253 1-713): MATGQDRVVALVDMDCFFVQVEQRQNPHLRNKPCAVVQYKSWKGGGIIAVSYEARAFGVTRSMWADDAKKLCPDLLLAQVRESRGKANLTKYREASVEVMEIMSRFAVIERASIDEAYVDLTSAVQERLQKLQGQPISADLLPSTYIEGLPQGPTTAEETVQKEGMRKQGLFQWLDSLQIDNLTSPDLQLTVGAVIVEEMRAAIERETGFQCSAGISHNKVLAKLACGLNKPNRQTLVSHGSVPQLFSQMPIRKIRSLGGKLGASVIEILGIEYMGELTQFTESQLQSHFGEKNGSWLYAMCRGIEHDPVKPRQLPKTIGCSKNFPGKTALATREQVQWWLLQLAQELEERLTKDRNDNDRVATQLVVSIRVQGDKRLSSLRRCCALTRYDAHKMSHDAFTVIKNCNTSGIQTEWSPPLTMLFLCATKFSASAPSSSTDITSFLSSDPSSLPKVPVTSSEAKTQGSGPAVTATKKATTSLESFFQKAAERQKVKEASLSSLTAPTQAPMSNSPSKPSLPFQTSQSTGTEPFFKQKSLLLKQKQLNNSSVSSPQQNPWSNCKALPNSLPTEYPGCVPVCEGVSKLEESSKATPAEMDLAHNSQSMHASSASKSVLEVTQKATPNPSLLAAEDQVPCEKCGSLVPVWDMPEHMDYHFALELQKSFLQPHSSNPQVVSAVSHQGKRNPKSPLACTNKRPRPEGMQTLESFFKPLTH

[2] = G opposite T (mispair), B sequence
[3] = G opposite T (mispair), W sequence
[4] = A opposite T (correct), B sequence
[5] = A opposite T (correct), W sequence

Compound | kpol (chemical misincorporation rate constant) (pol η; [2]) [s⁻¹] | kpol (chemical misincorporation rate constant) (pol η; [3]) [s⁻¹] | increase in G·T misincorporation rate constant (kpol), W versus B (pol η) | Kd (pol η; [2]) [µM] | Kd (pol η; [3]) [µM] | Kd (pol η; [4]) [µM] | Kd (pol η; [5]) [µM] | also measured
O=P(O)(O)NP(=O)(O)O [imidodiphosphoric acid] | – | – | – | – | – | – | – | pKa1 [1]: 2.01; pKa2 [1]: 2.81; pKa3 [1]: 7.11; pKa4 (soln) ([1]; imidodiphosphoric acid (NH leaving group)): 9.70
Nc1nc2c(ncn2[C@H]2C[C@H](O)[C@@H](COP(=O)(O)OP(=O)(O)OP(=O)(O)O)O2)c(=O)[nH]1 [dGTP] | 0.21 ± 0.02 | 0.86 ± 0.02 | ~ 4 fold and 3–4 fold and 4 fold | 30 ± 3 | 20 ± 4 | – | – | –
Nc1ncnc2c1ncn2[C@H]1CC(O)[C@@H](COP(=O)(O)OP(=O)(O)C(F)P(=O)(O)O)O1 (stereo partly shown) [dATP-CHF] | – | – | – | – | – | 190 ± 80 | 140 ± 20 | –
Nc1nc2c(ncn2C2CC(O)C(COP(=O)(O)OP(=O)(O)C(F)P(=O)(O)O)O2)c(=O)[nH]1 (stereo not shown) [dGTP-CHF] | 0.032 ± 0.005 | 0.12 ± 0.00 | 3.8 fold and 4 fold | 370 ± 60 | 390 ± 20 | – | – | increase in G·T misincorporation rate constant (kpol), W versus B (pol η; listed as CHF-dG): 3–4 fold
Nc1ncnc2c1ncn2[C@H]1C[C@H](O)[C@@H](COP(=O)(O)OP(=O)(O)OP(=O)(O)O)O1 [dATP] | – | – | – | – | – | 9.4 ± 3.1 | 7.1 ± 2.1 | –
